# Laboratory results from PubChem BioAssay AID330 (DTP/NCI, 2004).
# Where “and” joins values, the source holds several entries; their conditions need not be identical. Equal values may be shown once. Inconclusive results and toxic doses are left out.
# Test system: P388 leukemia ip, CD2F1 mice, survival T/C
# Assay: NCI In Vivo Anticancer Drug Screen. Data for tumor model P388 Leukemia (intraperitoneal) in CD2F1 (CDF1) mice
# Conditions: endpoint: median survival time, higher = longer survival
# Procedure, shortened: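 Mice carrying the transplanted tumor received test compound or vehicle. Survival was recorded in each group, and the value is the treated-group measurement divided by that of the vehicle-treated control group.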
# [1] = dose: 25.0 mg/kg/injection, schedule: Q01DX005 (ip), vehicle: saline with Tween-80
# [2] = dose: 60.0 mg/kg/injection, schedule: Q01DX005 (ip), vehicle: saline with Tween-80
# [3] = dose: 100.0 mg/kg/injection, schedule: Q04DX003 (ip), vehicle: saline
# [4] = dose: 6.25 mg/kg/injection, schedule: Q01DX009 (ip), vehicle: Klucel (hydroxypropylcellulose) (HPC)
# [5] = dose: 12.5 mg/kg/injection, schedule: Q01DX009 (ip), vehicle: Klucel (hydroxypropylcellulose) (HPC)
# [6] = dose: 25.0 mg/kg/injection, schedule: Q01DX009 (ip), vehicle: Klucel (hydroxypropylcellulose) (HPC)
# [7] = dose: 100.0 mg/kg/injection, schedule: Q04DX003 (ip), vehicle: saline with Tween-80
# [8] = dose: 200.0 mg/kg/injection, schedule: Q04DX003 (ip), vehicle: saline with Tween-80
# [9] = dose: 400.0 mg/kg/injection, schedule: Q04DX003 (ip), vehicle: saline with Tween-80
# [10] = dose: 120.0 mg/kg/injection, schedule: Q01DX005 (ip), vehicle: saline with Tween-80
# [11] = dose: 240.0 mg/kg/injection, schedule: Q01DX005 (ip), vehicle: saline with Tween-80
# [12] = dose: 50.0 mg/kg/injection, schedule: Q01DX009 (ip), vehicle: saline with Tween-80
# [13] = dose: 25.0 mg/kg/injection, schedule: Q01DX009 (ip), vehicle: saline with Tween-80
compound,measurement,setting,value
COc1cccc(Sc2ccc([N+](=O)[O-])c3no[n+]([O-])c23)c1,T/C,"dose: 0.93 mg/kg/injection, schedule: Q01DX005 (ip), vehicle: saline with Tween-80",100 % of control
same,T/C,"dose: 0.93 mg/kg/injection, schedule: Q01DX009 (ip), vehicle: saline with Tween-80",157 % of control
same,T/C,"dose: 1.56 mg/kg/injection, schedule: Q01DX005 (ip), vehicle: saline with Tween-80",100 % of control and 97 % of control
same,T/C,"dose: 1.87 mg/kg/injection, schedule: Q01DX005 (ip), vehicle: saline with Tween-80",99 % of control
same,T/C,"dose: 1.87 mg/kg/injection, schedule: Q01DX009 (ip), vehicle: saline with Tween-80",163 % of control
same,T/C,"dose: 3.12 mg/kg/injection, schedule: Q01DX005 (ip), vehicle: saline with Tween-80",100 % of control and 102 % of control
same,T/C,"dose: 3.75 mg/kg/injection, schedule: Q01DX005 (ip), vehicle: saline with Tween-80",99 % of control
same,T/C,"dose: 3.75 mg/kg/injection, schedule: Q01DX009 (ip), vehicle: saline with Tween-80",99 % of control
same,T/C,"dose: 6.25 mg/kg/injection, schedule: Q01DX005 (ip), vehicle: saline with Tween-80",100 % of control and 106 % of control
same,T/C,"dose: 7.5 mg/kg/injection, schedule: Q01DX005 (ip), vehicle: saline with Tween-80",102 % of control
same,T/C,"dose: 12.5 mg/kg/injection, schedule: Q01DX005 (ip), vehicle: saline with Tween-80",102 % of control and 106 % of control
same,T/C,"dose: 15.0 mg/kg/injection, schedule: Q01DX005 (ip), vehicle: saline with Tween-80",106 % of control
same,T/C,"dose: 15.0 mg/kg/injection, schedule: Q01DX009 (ip), vehicle: Klucel (hydroxypropylcellulose) (HPC)",184 % of control
same,T/C,"dose: 15.0 mg/kg/injection, schedule: Q01DX009 (ip), vehicle: saline with Tween-80",107 % of control
same,T/C,[1],108 % of control and 111 % of control
same,T/C,"dose: 30.0 mg/kg/injection, schedule: Q01DX005 (ip), vehicle: saline with Tween-80",109 % of control
same,T/C,"dose: 30.0 mg/kg/injection, schedule: Q01DX009 (ip), vehicle: Klucel (hydroxypropylcellulose) (HPC)",166 % of control
same,T/C,[2],110 % of control
same,T/C,"dose: 60.0 mg/kg/injection, schedule: Q01DX009 (ip), vehicle: Klucel (hydroxypropylcellulose) (HPC)",88 % of control
Cc1ccc(S(=O)(=O)N=S(C)(=O)CCCl)cc1 (centres undefined),T/C,"dose: 25.0 mg/kg/injection, schedule: Q04DX003 (ip), vehicle: saline",100 % of control
same,T/C,"dose: 50.0 mg/kg/injection, schedule: Q04DX003 (ip), vehicle: saline",107 % of control
same,T/C,[3],100 % of control
same,T/C,"dose: 100.0 mg/kg/injection, schedule: Q04DX003 (ip), vehicle: suspension in saline",94 % of control
C/C(N)=C/C(=O)c1ccccc1,T/C,[3],102 % of control
same,T/C,"dose: 200.0 mg/kg/injection, schedule: Q04DX003 (ip), vehicle: saline",100 % of control
same,T/C,"dose: 400.0 mg/kg/injection, schedule: Q04DX003 (ip), vehicle: saline",105 % of control
Cc1ccc2nc(N(C)C)cc(N(C)C)c2c1,T/C,[4],99 % of control
same,T/C,[5],110 % of control
same,T/C,[6],103 % of control
C=CCn1ccn(C)c1=S,T/C,[7],101 % of control
same,T/C,[8],98 % of control
same,T/C,[9],102 % of control
CN[C@H]1CCc2cc(OC)c(OC)c(OC)c2-c2ccc(O)c(=O)cc21,T/C,"dose: 2.5 mg/kg/injection, schedule: Q01DX009 (ip), vehicle: Klucel (hydroxypropylcellulose) (HPC)",103 % of control
same,T/C,"dose: 5.0 mg/kg/injection, schedule: Q01DX009 (ip), vehicle: Klucel (hydroxypropylcellulose) (HPC)",100 % of control
same,T/C,"dose: 10.0 mg/kg/injection, schedule: Q01DX009 (ip), vehicle: Klucel (hydroxypropylcellulose) (HPC)",99 % of control
same,T/C,"dose: 20.0 mg/kg/injection, schedule: Q01DX009 (ip), vehicle: Klucel (hydroxypropylcellulose) (HPC)",93 % of control
same,T/C,"dose: 40.0 mg/kg/injection, schedule: Q01DX009 (ip), vehicle: Klucel (hydroxypropylcellulose) (HPC)",92 % of control
same,T/C,"dose: 80.0 mg/kg/injection, schedule: Q01DX009 (ip), vehicle: Klucel (hydroxypropylcellulose) (HPC)",108 % of control
[Ni+2].[O-]/C(=N\N=C/c1ccco1)c1ccccc1O.[O-]/C(=N\N=C/c1ccco1)c1ccccc1O,T/C,"dose: 50.0 mg/kg/injection, schedule: Q04DX002 (ip), vehicle: saline with Tween-80",86 % of control
same,T/C,"dose: 100.0 mg/kg/injection, schedule: Q04DX002 (ip), vehicle: saline with Tween-80",93 % of control
same,T/C,"dose: 200.0 mg/kg/injection, schedule: Q04DX002 (ip), vehicle: saline with Tween-80",93 % of control
O=C1Nc2ccccc2/C1=C/c1ccc(Cl)c(Cl)c1,T/C,[4],96 % of control
same,T/C,[5],95 % of control
same,T/C,[6],92 % of control
same,T/C,"dose: 100.0 mg/kg/injection, schedule: Q01DX009 (ip), vehicle: Klucel (hydroxypropylcellulose) (HPC)",86 % of control
same,T/C,"dose: 200.0 mg/kg/injection, schedule: Q01DX009 (ip), vehicle: Klucel (hydroxypropylcellulose) (HPC)",90 % of control
CCOC(=O)c1[nH]c(=O)[nH]c(=O)c1I,T/C,"dose: 12.5 mg/kg/injection, schedule: Q01DX009 (ip), vehicle: distilled water + Tween-80",97 % of control
same,T/C,"dose: 25.0 mg/kg/injection, schedule: Q01DX009 (ip), vehicle: distilled water + Tween-80",105 % of control
same,T/C,"dose: 50.0 mg/kg/injection, schedule: Q01DX009 (ip), vehicle: distilled water + Tween-80",106 % of control
same,T/C,"dose: 100.0 mg/kg/injection, schedule: Q01DX009 (ip), vehicle: distilled water + Tween-80",105 % of control
same,T/C,"dose: 200.0 mg/kg/injection, schedule: Q01DX009 (ip), vehicle: distilled water + Tween-80",105 % of control
CC(C)CC(=O)CC(=O)CCC(=O)Nc1ccc(Cl)cc1Cl,T/C,[2],100 % of control
same,T/C,[10],108 % of control
same,T/C,[11],100 % of control
CCC1CN2CCc3cc(OC)c(OC)cc3C2CC1C#N (centres undefined),T/C,[12],93 % of control
CCOCCOC(=O)Nc1c(Cl)cccc1Cl,T/C,[2],101 % of control
same,T/C,[10],96 % of control
same,T/C,[11],95 % of control
O=S1(=O)C2C=CCCC1C=C2 (centres undefined),T/C,"dose: 12.5 mg/kg/injection, schedule: Q01DX009 (ip), vehicle: saline",92 % of control
same,T/C,"dose: 25.0 mg/kg/injection, schedule: Q01DX009 (ip), vehicle: saline",96 % of control
same,T/C,"dose: 50.0 mg/kg/injection, schedule: Q01DX009 (ip), vehicle: saline",100 % of control
same,T/C,"dose: 200.0 mg/kg/injection, schedule: Q01DX009 (ip), vehicle: saline",100 % of control
CNC(=O)Nc1cccc(C2(C)OCCS2)c1 (centres undefined),T/C,[2],100 % of control
same,T/C,[10],94 % of control
same,T/C,[11],99 % of control
CCC/C(=N\NC(N)=NC)c1ccc2c(c1)Cc1cc(/C(CCC)=N/NC(N)=NC)ccc1-2,T/C,"dose: 3.12 mg/kg/injection, schedule: Q04DX002 (ip), vehicle: saline with Tween-80",96 % of control
same,T/C,"dose: 6.25 mg/kg/injection, schedule: Q04DX002 (ip), vehicle: saline with Tween-80",100 % of control
CC(=O)OC(CO)C(OC(C)=O)C(CNc1nc(N)[nH]c(=O)c1[N+](=O)[O-])OC(C)=O (centres undefined),T/C,[2],101 % of control
same,T/C,[10],92 % of control
same,T/C,[11],92 % of control
OC(CCl)COn1nnc2ccccc21 (centres undefined),T/C,[1],100 % of control
same,T/C,"dose: 50.0 mg/kg/injection, schedule: Q01DX005 (ip), vehicle: saline with Tween-80",102 % of control
same,T/C,"dose: 100.0 mg/kg/injection, schedule: Q01DX005 (ip), vehicle: saline with Tween-80",100 % of control
same,T/C,[7],98 % of control
same,T/C,[8],99 % of control
same,T/C,[9],94 % of control
C[C@]12CCC(=O)C(O)=C1CC[C@@H]1[C@@H]2CC[C@@]2(C)[C@H]1CC[C@]2(C)O,T/C,[13],92 % of control
same,T/C,"dose: 25.0 mg/kg/injection, schedule: Q04DX003 (ip), vehicle: saline with Tween-80",100 % of control
same,T/C,[12],100 % of control
same,T/C,"dose: 50.0 mg/kg/injection, schedule: Q04DX003 (ip), vehicle: saline with Tween-80",105 % of control
same,T/C,"dose: 100.0 mg/kg/injection, schedule: Q01DX009 (ip), vehicle: saline with Tween-80",98 % of control
same,T/C,[7],101 % of control
same,T/C,"dose: 200.0 mg/kg/injection, schedule: Q01DX009 (ip), vehicle: saline with Tween-80",101 % of control
same,T/C,[8],105 % of control
CC(=O)NC(C=O)OCC=O (centres undefined),T/C,"dose: 44.0 mg/kg/injection, schedule: Q01DX005 (ip), vehicle: water",120 % of control
same,T/C,"dose: 66.0 mg/kg/injection, schedule: Q01DX005 (ip), vehicle: water",121 % of control
same,T/C,"dose: 150.0 mg/kg/injection, schedule: Q01DX005 (ip), vehicle: water",110 % of control
N#CC1=C(C#N)C(=O)c2ccccc2C1=O,T/C,[13],104 % of control
same,T/C,[12],104 % of control
